In patent US8207172B2 (Bayer Intellectual Property GmbH, priority 2004, dated 2012) one finds IC50 data, which are given here for 23 compounds.

Where only a bound is given, the exact number is not on record here.

The subject of test [1] is A431 cells (human epidermoid carcinoma). The experiment in a line: In vitro tumor cell proliferation assay (Cell Titer-Glo luminescent cell viability), A431. Conditions: A-431, 72 h, 72 hours of drug exposure, ATP luminescence readout, read-out: IC50, anti-proliferative activity (inhibition of cell proliferation). The format is cell-based. In a few lines: (§1)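 Seeding density 2.5×10^3 cells/well; 72 h drug exposure at 37° C; endpoint CellTiter-Glo luminescence, reported as IC50.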

Test [2] concerns BT474 (human breast carcinoma). The experiment in a line: In vitro tumor cell proliferation assay (Cell Titer-Glo luminescent cell viability), BT474. Conditions: BT-474, 72 h, BT474 cells, 72 hours of drug exposure, ATP luminescence readout, read-out: IC50, anti-proliferative activity (inhibition of cell proliferation). Type of test: cell-based. In a few lines:
as §1

For the compound `CN(C)c1ccc(NC(=O)Cn2ncc3c2CCc2c-3sc3ncnc(Nc4ccc(OCc5cccc(F)c5)c(Cl)c4)c23)cc1` [Example 192, 2-[6-({3-chloro-4-[(3-fluorobenzyl)oxy]phenyl}amino)-4,5-dihydro-3H-pyrimido[5′,4′:4,5]thieno[2,3-e]indazol-3-yl]-N-[4-(dimethylamino)phenyl]acetamide], the IC50 in test [1] was at most 50 µM; in test [2], at most 5 µM.

Turning to `CN(C)CCNC(=O)Cn1ncc2c1CCc1c-2sc2ncnc(Nc3ccc(OCc4cccc(F)c4)c(Cl)c3)c12` [Example 193, 2-[6-({3-chloro-4-[(3-fluorobenzyl)oxy]phenyl}amino)-4,5-dihydro-3H-pyrimido[5′,4′:4,5]thieno[2,3-e]indazol-3-yl]-N-[2-(dimethylamino)ethyl]acetamide], the results for the IC50 in test [1] and in test [2] were at most 50 µM and at most 1 µM, respectively.

For `O=C(Cn1ncc2c1CCc1c-2sc2ncnc(Nc3ccc(OCc4cccc(F)c4)c(Cl)c3)c12)Nc1ccccn1` [Example 195, 2-[6-({3-chloro-4-[(3-fluorobenzyl)oxy]phenyl}amino)-4,5-dihydro-3H-pyrimido[5′,4′:4,5]thieno[2,3-e]indazol-3-yl]-N-pyridin-2-ylacetamide], the IC50 in test [1] was at most 50 µM; in test [2], at most 1 µM.

On to `CNC(=O)Cn1ncc2c1CCc1c-2sc2ncnc(Nc3ccc(OCc4cccc(F)c4)c(Cl)c3)c12` [Example 196, 2-[6-({3-chloro-4-[(3-fluorobenzyl)oxy]phenyl}amino)-4,5-dihydro-3H-pyrimido[5′,4′:4,5]thieno[2,3-e]indazol-3-yl]-N-methylacetamide], for which the IC50 in test [1] is at most 50 µM; in test [2], at most 1 µM.

As to `O=C(Cn1ncc2c1CCc1c-2sc2ncnc(Nc3ccc(OCc4cccc(F)c4)c(Cl)c3)c12)NCCN1CCOCC1` [Example 197, 2-[6-({3-chloro-4-[(3-fluorobenzyl)oxy]phenyl}amino)-4,5-dihydro-3H-pyrimido[5′,4′:4,5]thieno[2,3-e]indazol-3-yl]-N-(2-morpholin-4-ylethyl)acetamide], the values for the IC50 in test [1] and in test [2] were at most 50 µM and at most 1 µM, respectively.

Take `CCOC(=O)N1CCN(C(=O)Cn2ncc3c2CCc2c-3sc3ncnc(Nc4ccc(OCc5cccc(F)c5)c(Cl)c4)c23)CC1` [Example 198, ethyl 4-{[6-({3-chloro-4-[(3-fluorobenzyl)oxy]phenyl}amino)-4,5-dihydro-3H-pyrimido[5′,4′:4,5]thieno[2,3-e]indazol-3-yl]acetyl}piperazine-1-carboxylate]: the IC50 was at most 50 µM in test [1] and at most 1 µM in test [2].

Take `O=C(Cn1ncc2c1CCc1c-2sc2ncnc(Nc3ccc(OCc4cccc(F)c4)c(Cl)c3)c12)N1CCOCC1` [Example 199, N-{3-chloro-4-[(3-fluorobenzyl)oxy]phenyl}-3-(2-morpholin-4-yl-2-oxoethyl)-4,5-dihydro-3H-pyrimido[5′,4′:4,5]thieno[2,3-e]indazol-6-amine]: the results for the IC50 in test [1] and in test [2] were at most 50 µM and at most 1 µM, respectively.

With `O=C(Cn1ncc2c1CCc1c-2sc2ncnc(Nc3ccc(OCc4cccc(F)c4)c(Cl)c3)c12)NCCN1CCNCC1` [Example 200, 2-[6-({3-chloro-4-[(3-fluorobenzyl)oxy]phenyl}amino)-4,5-dihydro-3H-pyrimido[5′,4′:4,5]thieno[2,3-e]indazol-3-yl]-N-(2-piperazin-1-ylethyl)acetamide], the values for the IC50 in test [1] and in test [2] were at most 50 µM and at most 1 µM, respectively.

Regarding `O=C(Cn1ncc2c1CCc1c-2sc2ncnc(Nc3ccc(OCc4cccc(F)c4)c(Cl)c3)c12)N1CCNCC1` [Example 201, N-{3-chloro-4-[(3-fluorobenzyl)oxy]phenyl}-3-(2-oxo-2-piperazin-1-ylethyl)-4,5-dihydro-3H-pyrimido[5′,4′:4,5]thieno[2,3-e]indazol-6-amine], the IC50 in test [1] was at most 5 µM; in test [2], at most 1 µM.

With `CCN1CCN(C(=O)Cn2ncc3c2CCc2c-3sc3ncnc(Nc4ccc(OCc5cccc(F)c5)c(Cl)c4)c23)CC1` [Example 202, N-{3-chloro-4-[(3-fluorobenzyl)oxy]phenyl}-3-[2-(4-ethylpiperazin-1-yl)-2-oxoethyl]-4,5-dihydro-3H-pyrimido[5′,4′:4,5]thieno[2,3-e]indazol-6-amine], the IC50 in test [1] was at most 5 µM; in test [2] it was at most 1 µM.

As to `COCCN1CCN(C(=O)Cn2ncc3c2CCc2c-3sc3ncnc(Nc4ccc(OCc5cccc(F)c5)c(Cl)c4)c23)CC1` [Example 203, N-{3-chloro-4-[(3-fluorobenzyl)oxy]phenyl}-3-{2-[4-(2-methoxyethyl)piperazin-1-yl]-2-oxoethyl}-4,5-dihydro-3H-pyrimido[5′,4′:4,5]thieno[2,3-e]indazol-6-amine], the IC50 is at most 50 µM in test [1] and at most 1 µM in test [2].

With `CS(=O)(=O)CCNC(=O)Cn1ncc2c1CCc1c-2sc2ncnc(Nc3ccc(OCc4cccc(F)c4)c(Cl)c3)c12` [Example 204, 2-[6-({3-chloro-4-[(3-fluorobenzyl)oxy]phenyl}amino)-4,5-dihydro-3H-pyrimido[5′,4′:4,5]thieno[2,3-e]indazol-3-yl]-N-[2-(methylsulfonyl)ethyl]acetamide], the IC50 in test [1] is at most 50 µM; in test [2], at most 1 µM.

On to `CN1CCN(C(=O)Cn2ncc3c2CCc2c-3sc3ncnc(Nc4ccc(OCc5cccc(F)c5)c(Cl)c4)c23)CC1` [Example 205, N-{3-chloro-4-[(3-fluorobenzyl)oxy]phenyl}-3-[2-(4-methylpiperazin-1-yl)-2-oxoethyl]-4,5-dihydro-3H-pyrimido[5′,4′:4,5]thieno[2,3-e]indazol-6-amine], for which the IC50 in test [1] was at most 5 µM; in test [2], at most 1 µM.

Turning to `O=C(Cn1ncc2c1CCc1c-2sc2ncnc(Nc3ccc(OCc4cccc(F)c4)c(Cl)c3)c12)N1CC[C@@H](O)C1` [Example 206, (3R)-1-{[6-({3-chloro-4-[(3-fluorobenzyl)oxy]phenyl}amino)-4,5-dihydro-3H-pyrimido[5′,4′:4,5]thieno[2,3-e]indazol-3-yl]acetyl}pyrrolidin-3-ol], the IC50 was at most 5 µM in test [1] and at most 1 µM in test [2].

For `COCCNC(=O)Cn1ncc2c1CCc1c-2sc2ncnc(Nc3ccc(OCc4cccc(F)c4)c(Cl)c3)c12` [Example 207, 2-[6-({3-chloro-4-[(3-fluorobenzyl)oxy]phenyl}amino)-4,5-dihydro-3H-pyrimido[5′,4′:4,5]thieno[2,3-e]indazol-3-yl]-N-(2-methoxyethyl)acetamide], the figures for the IC50 in test [1] and in test [2] were at most 50 µM and at most 1 µM, respectively.

On to `O=C(Cn1ncc2c1CCc1c-2sc2ncnc(Nc3ccc(OCc4cccc(F)c4)c(Cl)c3)c12)NCCO` [Example 209, 2-[6-({3-chloro-4-[(3-fluorobenzyl)oxy]phenyl}amino)-4,5-dihydro-3H-pyrimido[5′,4′:4,5]thieno[2,3-e]indazol-3-yl]-N-(2-hydroxyethyl]acetamide], for which the figures for the IC50 in test [1] and in test [2] were at most 50 µM and at most 1 µM, respectively.

As for `O=C(Cn1ncc2c1CCc1c-2sc2ncnc(Nc3ccc(OCc4cccc(F)c4)c(Cl)c3)c12)Nc1cccnc1` [Example 210, 2-[6-({3-chloro-4-[(3-fluorobenzyl)oxy]phenyl}amino)-4,5-dihydro-3H-pyrimido[5′,4′:4,5]thieno[2,3-e]indazol-3-yl]-N-pyridin-3-ylacetamide], the IC50 was at most 5 µM in test [1] and at most 1 µM in test [2].

Regarding `O=C(Cn1ncc2c1CCc1c-2sc2ncnc(Nc3ccc(OCc4cccc(F)c4)c(Cl)c3)c12)N(CCO)CCO` [Example 212, 2-[6-({3-chloro-4-[(3-fluorobenzyl)oxy]phenyl}amino)-4,5-dihydro-3H-pyrimido[5′,4′:4,5]thieno[2,3-e]indazol-3-yl]-N,N-bis(2-hydroxyethyl)acetamide], the values for the IC50 in test [1] and in test [2] were at most 50 µM and at most 1 µM, respectively.

In the case of `O=C(Cn1ncc2c1CCc1c-2sc2ncnc(Nc3ccc(OCc4cccc(F)c4)c(Cl)c3)c12)N1CCC(O)CC1` [Example 213, 1-{[6-({3-chloro-4-[(3-fluorobenzyl)oxy]phenyl}amino)-4,5-dihydro-3H-pyrimido[5′,4′:4,5]thieno[2,3-e]indazol-3-yl]acetyl}piperidin-4-ol], the IC50 is at most 5 µM in test [1] and at most 1 µM in test [2].

Regarding `O=C(Cn1ncc2c1CCc1c-2sc2ncnc(Nc3ccc(OCc4cccc(F)c4)c(Cl)c3)c12)N1CC[C@H](O)C1` [Example 214, 1-{[6-({3-chloro-4-{(3-fluorobenzyl)oxy]phenyl}amino)-4,5-dihydro-3H-pyrimido[5′,4′:4,5]thieno[2,3-e]indazol-3-yl]acetyl}pyrrolidin-3-ol], the IC50 in test [1] is at most 5 µM; in test [2], at most 1 µM.

With `CN(C)C1CCN(C(=O)Cn2ncc3c2CCc2c-3sc3ncnc(Nc4ccc(OCc5cccc(F)c5)c(Cl)c4)c23)C1` (stereo not shown) [Example 215, N-{3-chloro-4-[(3-fluorobenzyl)oxy]phenyl}-3-{2-[3-(dimethylamino)pyrrolidin-1-yl]-2-oxoethyl}-4,5-dihydro-3H-pyrimido[5′,4′:4,5]thieno[2,3-e]indazol-6-amine], the values for the IC50 in test [1] and in test [2] were at most 5 µM and at most 1 µM, respectively.

`CC(C)(C)OC(=O)N1CCC(n2cc3c(n2)CCc2c-3sc3ncnc(Nc4ccc(OCc5cccc(F)c5)c(Cl)c4)c23)CC1` [Example 216, tert-butyl 4-[6-({3-chloro-4-[(3-fluorobenzyl)oxy]phenyl}amino)-4,5-dihydro-2H-pyrimido[5′,4′:4,5]thieno[2,3-e]indazol-2-yl]piperidine-1-carboxylate]: the IC50 in test [1] and in test [2] was at most 50 µM throughout.

For the compound `Fc1cccc(COc2ccc(Nc3ncnc4sc5c(c34)CCc3nn(C4CCNCC4)cc3-5)cc2Cl)c1` [Example 217, N-{3-chloro-4-[(3-fluorobenzyl)oxy]phenyl}-2-piperidin-4-yl-4,5-dihydro-2H-pyrimido[5′,4′:4,5]thieno[2,3-e]indazol-6-amine], the IC50 in test [1] was at most 5 µM; in test [2] it was at most 1 µM.
